Assay results published in patent CN110194737A, “一种联水杨醛缩3-氯-2-肼基吡啶席夫碱合成方法与应用” (Harbin University of Science and Technology, priority 2019, dated 2019).

How the values were obtained:
[1] = Anti-interference of the probe for Zn2+ in the presence of other metal ions (FIG. 7); details: for fluorescence intensity: EX=350nm, EM=475nm
[2] = Qualitative/selective recognition of metal ions by the probe, Cd2+ (FIG. 6); details: 100uL of 1×10^-2mol/L Cd2+; probe solution 3mL; EX=350nm, EM=475nm
[3] = Fluorescence titration of the Schiff base probe with Zn2+ (Examples 2-7, FIG. 4); details: for fluorescence intensity: probe 2×10^-5mol/L in methanol, 3mL, EX=350nm, EM=475nm
[4] = Qualitative/selective recognition of metal ions by the probe, Zn2+ (FIG. 6)
[5] = Quantitative analysis of Zn2+: linear relation of fluorescence intensity and Zn2+ concentration, detection limit (Examples 8-11, FIG. 5)

What does the source list for `CC(C)(C)c1cc(C=NNc2ncccc2Cl)c(O)c(-c2cc(C(C)(C)C)cc(C=NNc3ncccc3Cl)c2O)c1` [荧光探针, 5,5'-二叔丁基-2,2'-二羟基联苯-3,3'-二甲醛缩3-氯-2-肼基吡啶席夫碱]?
fluorescence intensity ([1]; 100uL Zn2+ plus 100uL Ba2+ (1×10^-2mol/L each)): 694.5; fluorescence intensity ([1]; 100uL Zn2+ plus equal volume of Ca2+ (1×10^-2mol/L each)): 914.6; interference by other metal ions in recognition of Zn2+ ([1]; other metal ions coexisting with Zn2+): 可避免其它金属离子共存时产生的干扰,可实现对Zn2+的专一性识别; fluorescence intensity [2]: 300.2; fluorescence intensity ([3]; 1μL of 1×10^-2mol/L Zn2+ added): 83.56; fluorescence intensity ([3]; 6μL of 1×10^-2mol/L Zn2+ added): 468.2; fluorescence intensity ([3]; 12μL of 1×10^-2mol/L Zn2+ added): 852.4; fluorescence intensity ([3]; 18μL of 1×10^-2mol/L Zn2+ added): 952.4; visible change under UV lamp ([3]; 365nm, after recognition of Zn2+): 在紫外灯365nm下即可看到明显变化; fluorescence intensity enhancement relative to blank ([3]; after recognition of Zn2+ (18μL of 1×10^-2mol/L Zn2+) vs probe blank): 34 fold; fluorescence intensity ([3]; probe blank solution without Zn2+, slits 5nm): 28.02; fluorescence intensity ([4]; 100uL of 1×10^-2mol/L Zn2+, probe solution 3mL, EX=350nm, EM=475nm): 923.5; selectivity of recognition of Zn2+ ([4]; vs 18 other metal ions, 100uL of 1×10^-2mol/L each): 较好的选择性; fluorescence intensity ([5]; Zn2+ 30μM in the system, EX=350nm, EM=475nm): 119.8; fluorescence intensity ([5]; Zn2+ 50μM in the system, EX=350nm, EM=475nm): 440.2; fluorescence intensity ([5]; Zn2+ 70μM in the system, EX=350nm, EM=475nm): 765.9; detection limit ([5]; Zn2+, calculated): 6.05e-08 mol/L; linear range of fluorescence intensity vs Zn2+ concentration ([5]; good linear relation, EX=350nm, EM=475nm): 30 to 70 µM
